From PubChem BioAssay AID179 (DTP/NCI, 2004) come the findings set out here.

This test has as its system CEM cells HIV-1 protection, formazan growth assay. The test is described as follows: NCI AIDS Antiviral Assay. To be noted: for IC50: measured here: growth of uninfected CEM cells. Put shortly: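 Protection of CEM cells against HIV-1 was scored from cell growth (soluble formazan) across five concentrations, with parallel uninfected cells. Lack of protection may reflect toxicity.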

Activity calls are given as the source filed them.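 The calls were made as follows: active = compounds giving half or more protection of infected cells from virus-caused growth loss, again on retest; inactive = the rest.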

`CC1(C)CC[C@]2(C(=O)O)C(O)CC3(C)C(=CCC4[C@@]5(C)CC[C@H](OS(=O)(=O)O)C(C)(C)C5CC[C@]43C)[C@@H]2C1` (some centres undefined): the EC50 is greater than 219 µM and the IC50 is greater than 219 µM.

Regarding `CCOC(=O)CNCc1cc(=O)[nH]c2cc(Cl)ccc12`, the EC50 is greater than 200 µM and the IC50 stood at 40.7 µM.

For `C=C1SC(=Nc2cccc(OC)c2)N(c2nc(Cl)nc(Cl)n2)C1(C)C`, the EC50 is greater than 112 µM and the IC50 turned out to be 20 µM.

For the compound `CC[C@]1(c2ccc3c(c2)OCO3)C=[N+]([O-])O[C@H](OC2CCCC2(c2ccccc2)c2ccccc2)[C@@H]1OC(C)=O` (some centres undefined), the EC50 was greater than 200 µM and the 50% inhibitory concentration (IC50) was 4.07 µM.

For `Cc1ccc(/C=N/Nc2nncc3ccccc23)s1`, the EC50 was greater than 200 µM and the concentration for half-maximal inhibition (IC50) is greater than 200 µM.

Consider `COC1/C=C/OC2(C)Oc3c(C)c(O)c4c(O)c(cc(OCC(=O)N(C)C(C)C)c4c3C2=O)NC(=O)/C(C)=C/C=C/C(C)C(O)C(C)C(O)C(C)C(OC(C)=O)C1C` (centres undefined), for which the EC50 was greater than 200 µM and the IC50 was 38 µM.

On to `Nc1cc2[nH]c(=O)c(=O)[nH]c2cc1N`, for which the EC50 is greater than 200 µM and the IC50 came out at 63.1 µM.

`COc1ccc([C@H]2CC(=O)NCCCCN2)cc1`: the EC50 is greater than 200 µM and the IC50 is greater than 200 µM.

Regarding `CC(=O)Nc1ccccc1/C=C/c1ccccn1`, the EC50 is greater than 1050 µM and the IC50 was determined as 407 µM.

Regarding `Cc1ccnc(NC(=S)Nc2cc(C)ccn2)c1`, the EC50 is greater than 200 µM and the IC50 was 135 µM.

For `COc1cc(CC2c3cc(OC)c(OC)cc3CCN2C)c(Oc2cc3c(cc2OC)-c2c(O)c(OC)cc4c2C(C3)N(C)CC4)cc1OC` (centres undefined), the result was inactive.

With `OCCNCNc1nc(NCNCCO)nc(N(CNCCO)CNCCO)n1`, the EC50 is greater than 200 µM and the IC50 came to 26.9 µM.

`NC1=Nc2cc(Cl)ccc2Sc2nc3ccccc3n21`: the EC50 was greater than 200 µM and the IC50 was determined as 20.9 µM.

For the compound `O=C1/C(=C/c2ccc(O)cc2)Oc2ccccc21`, the EC50 is greater than 200 µM and the IC50 was 151 µM.

For the compound `CCC1CC2CN3CCc4c([nH]c5ccc(OC)cc45)C(COC(=O)c4ccc(OC)c(OC)c4)(C2)C13` (centres undefined), the outcome was inactive.

Take `NCCCn1c(Cl)nc2ccccc21`: the EC50 was greater than 200 µM and the IC50 is greater than 200 µM.

Consider `O=Nc1c(O)cc(Nc2cccnc2)c2ccccc12`, for which the half-maximal effective concentration (EC50) is 102 µM and the IC50 worked out at 182 µM.

As to `Nc1ncnc2c1nc1n2C2OC(CO)C(O)C2O1` (centres undefined), the EC50 is greater than 339 µM and the half-inhibitory concentration (IC50) was greater than 339 µM.

Regarding `COc1cc(N=Nc2ccccc2)cc(/C=N/NC(N)=S)c1O`, the outcome was inactive.

With `C[C@]12CCC[C@H](O)[C@H]1C[C@H](CO)CC2`, the result was inactive.

As for `NC1CC(=O)c2c1sc(Cl)c2Cl` (centres undefined), the outcome was inactive.

On to `COc1cc(N(C)C)ccc1/C=C\c1ccnc2ccccc12`, for which the EC50 was greater than 200 µM and the IC50 was found to be 13.5 µM.

As to `O=[N+]([O-])c1cc2ccc(O)cc2c2ccccc12`, the EC50 was 51.3 µM and the IC50 worked out at 61.7 µM.

In the case of `Cc1ccc2c(/C=C/c3ccc(N(C)C)cc3)ccc(C(C)C)cc1-2`, the EC50 is greater than 200 µM and the IC50 came out at 151 µM.

Regarding `CN(C)c1ccc(/C=C(\NC(=O)c2ccccc2)C2NC(Cc3c[nH]c4ccccc34)C(=O)O2)cc1` (centres undefined), the EC50 is greater than 100 µM and the IC50 came to 8.71 µM.

Turning to `COc1ccc(OC)c(-n2nnc3ccccc3c2=O)c1`, the EC50 is greater than 302 µM and the 50% inhibitory concentration (IC50) is 174 µM.

For `NCCCCC(NC(=O)C(CS)NC(=O)C(N)Cc1cnc[nH]1)C(=O)NC(Cc1ccccc1)C(=O)NC(Cc1c[nH]c2ccccc12)C(=O)NC(Cc1c[nH]c2ccccc12)C(N)=O` (centres undefined), the EC50 is greater than 50.1 µM and the IC50 is greater than 50.1 µM.

Consider `CCOC(=O)/C(=C\c1ccc(N(C)C)cc1)P(=O)(OCC)OCC`, for which the EC50 is greater than 513 µM and the 50% inhibitory concentration (IC50) stood at 55 µM.

Regarding `O=C1NC(O)c2cc(CO)ccc2O1` (centres undefined), the EC50 is greater than 200 µM and the IC50 was found to be 95.5 µM.

With `N#Cc1ccc(N2CCOCC2)cc1`, the EC50 is 195 µM and the half-maximal inhibitory concentration (IC50) is greater than 200 µM.

As to `CC(CC(=O)c1ccccc1)C(Sc1ccccc1)(Sc1ccccc1)Sc1ccccc1` (centres undefined), the EC50 is greater than 200 µM and the IC50 was greater than 100 µM.

As for `O=C(O)C1C2C=CC(C(/C=C/c3ccccc3)N2)C1C(=O)O` (centres undefined), the EC50 was greater than 200 µM and the IC50 was greater than 200 µM.

On to `CCCCOCCOC(=O)C1C(C=C(C)C)C1(C)C` (centres undefined), for which the EC50 is greater than 200 µM and the IC50 was greater than 200 µM.

For `CN(C)/N=C(\CCN1CCCC1)CC(c1ccccc1)c1c(O)c2ccccc2oc1=O` (centres undefined), the EC50 is greater than 39.8 µM and the IC50 is greater than 39.8 µM.

Regarding `Cc1coc(NS(=O)(=O)c2ccc(N=Nc3c(N)n(C)c(=O)n(C)c3=O)cc2)c1C`, the outcome was inactive.

For `Cc1cccc(NC(=O)Nc2ccc(F)cc2)n1`, the EC50 was 129 µM and the IC50 was greater than 200 µM.

As for `CC(=O)OC1COC(n2c3ccccc3c3ccc4c5ccccc5[nH]c4c32)C(OC(C)=O)C1OC(C)=O` (centres undefined), the EC50 was greater than 117 µM and the IC50 is 115 µM.

On to `O=C(O)[C@H](NS(=O)(=O)c1ccc(F)cc1)c1ccccc1`, for which the outcome was inactive.

In the case of `C=CC1ON(C)CCc2cc(OC)c(OC)cc21` (centres undefined), the EC50 is 162 µM and the IC50 is greater than 200 µM.

Take `CN(C)c1ccc(/C=C(\C#N)C(=O)O)cc1`: the EC50 was greater than 437 µM and the IC50 was found to be 219 µM.

With `CN(C)N1C(=O)C(=O)N(c2cccc3ccccc23)C1=O`, the EC50 was greater than 200 µM and the IC50 was greater than 200 µM.

For `CCC1OC(=O)[C@H](C)C(OC2CC(C)(OC)C(O)C(C)O2)C(C)C(OC2OC(C)CC(N(C)C)C2O)[C@](C)(O)CC(C)CN(C)[C@H](C)[C@@H](O)[C@]1(C)O` (some centres undefined), the EC50 is greater than 200 µM and the IC50 was determined as 132 µM.

In the case of `Cc1ccc(-c2cc(=O)c3cc(C)c(C)c(C(=O)O)c3o2)cc1`, the result was inactive.

With `N#C/C(=C\c1cc(Br)c(O)c(Br)c1)c1cccnc1`, the EC50 is greater than 100 µM and the IC50 stood at 44.7 µM.

In the case of `CN(C)c1ccc(/C=C(/NC(=O)c2ccccc2)c2nc3ccc(Cl)cc3[nH]2)cc1`, the EC50 was greater than 17.4 µM and the concentration for half-maximal inhibition (IC50) was greater than 17.4 µM.

As to `CC(NC(=O)/C(=C/c1ccccc1)NC(=O)c1ccccc1)C(=O)O` (centres undefined), the EC50 is greater than 200 µM and the half-inhibitory concentration (IC50) is greater than 200 µM.

As for `CSC(SC)=C1Sc2cccc(Cl)c2S1`, the EC50 was greater than 9.33 µM and the IC50 was greater than 9.33 µM.

For `C/C(=C1/CCC/C(=C(/C)c2ccccc2)C1=O)c1ccccc1`, the EC50 is greater than 9.12 µM and the concentration for half-maximal inhibition (IC50) is greater than 9.12 µM.

`CCCC1N=C(c2ccccc2)C2C(c3ccc([N+](=O)[O-])cc3)N12` (centres undefined): the EC50 is greater than 200 µM and the IC50 came out at 148 µM.

For `COC(=O)C(C)(C)C(OP1(=S)N(C)CCN1C)=C(C)C`, the EC50 was greater than 155 µM and the IC50 is greater than 155 µM.

Regarding `COc1ccc(C/C(=N/O)C(=O)NCCc2cc(Br)c(OCCCN(C)C)c(Br)c2)cc1Br`, the outcome was inactive.

Regarding `[N-]=[N+]=NC1(Cc2ccccc2)C(=O)c2cccc3c2N(CCC3)C1=O` (centres undefined), the outcome was inactive.

Regarding `Cc1cc(Cc2cc(C)c(O)c(C(=O)O)c2)cc(C(=O)O)c1O`, the EC50 is 380 µM and the IC50 was determined as 417 µM.

In the case of `COc1cc(C2C(Cl)C(=O)N2n2cnc3ccccc3c2=O)ccc1O` (centres undefined), the EC50 was greater than 676 µM and the IC50 worked out at 30.2 µM.

Turning to `CN(C)/C=C\c1c([N+](=O)[O-])ncn1C`, the EC50 was greater than 200 µM and the IC50 is greater than 200 µM.

Turning to `CCC(Oc1ccc(OC)c2c1C(=O)CCC2)C(=O)O` (centres undefined), the outcome was inactive.

For the compound `COc1ccc(/C=C/C(=O)c2sc(-c3cccnc3)nc2C)cc1`, the EC50 is greater than 21.4 µM and the IC50 is greater than 21.4 µM.

Regarding `CCN(CC)c1c(C)nnc2c(C)c(-c3ccccc3)nn12`, the EC50 was greater than 3.55 µM and the IC50 was greater than 3.55 µM.

As to `S=C(N/N=C/c1ccccc1Cl)Nc1ccccc1`, the EC50 was greater than 200 µM and the IC50 was 135 µM.

As for `Cc1cc(Cl)c(O)c(-c2cc(-c3cccc([N+](=O)[O-])c3)c3c(N)[nH]c(=S)nc3n2)c1`, the EC50 was greater than 200 µM and the IC50 was found to be 3.89 µM.

Turning to `CNCCCCN(C)/[N+]([O-])=N\O`, the EC50 is greater than 8910 µM and the IC50 came out at 4070 µM.

`CCN(CC)CCC1CCCCN1CC(=O)N1c2ccccc2NC(=O)c2ccccc21` (centres undefined): the EC50 was greater than 200 µM and the IC50 was greater than 200 µM.

In the case of `Nc1nc(=O)n(C2OC(CO)C(O)C2Cl)cc1I` (centres undefined), the EC50 is greater than 200 µM and the IC50 was 1.17 µM.

Regarding `C1=C(N2CCOCC2)/C(=C2\SC(=Nc3ccccc3)C(=Nc3ccccc3)N2c2ccccc2)CC1`, the EC50 was greater than 200 µM and the IC50 was determined as 138 µM.

`COc1nc2c(c(O)c(C)c(=O)n2OC2OCC(OC(C)=O)C(OC(C)=O)C2OC(C)=O)c(=O)n1C` (centres undefined): the EC50 was greater than 132 µM and the IC50 was greater than 132 µM.

Turning to `COc1ccc(/C=C/C(=O)C(C)(C)C)cc1OC`, the EC50 is greater than 200 µM and the IC50 was 39.8 µM.

For the compound `O=c1cc(N=P(c2ccccc2)(c2ccccc2)c2ccccc2)n(-c2ccccc2)c(=O)n1-c1ccccc1`, the outcome was inactive.

On to `N#CC(c1ccccc1)N(CCCCCCN(C(=O)c1ccccc1)C(C#N)c1ccccc1)C(=O)c1ccccc1` (centres undefined), for which the EC50 was greater than 200 µM and the IC50 was 61.7 µM.

Consider `CCN(CC)C(=O)Cc1[nH][nH]c(=O)c1C(=O)N(CC)CC`, for which the EC50 is greater than 851 µM and the IC50 is greater than 851 µM.

With `COc1ccc(Cc2c(=O)[nH]nc3ccccc23)cc1`, the EC50 is greater than 70.8 µM and the IC50 is greater than 70.8 µM.

As for `c1ccc2c(OCCSCCCCCCCCCCSCCOc3cccc4ccccc34)cccc2c1`, the EC50 was greater than 5.01 µM and the IC50 is greater than 5.01 µM.

Take `c1cc2c(ncc3cscc32)s1`: the outcome was inactive.

Consider `COC1=C(Br)C(=O)c2nc(C)ccc2C1=O`, for which the result was inactive.

For the compound `COc1cc(OC)c2c(C)cc(=O)oc2c1`, the EC50 is greater than 200 µM and the IC50 is greater than 200 µM.

A word on the EC50: it is the concentration needed to bring the measured effect to its halfway point. The term IC50 denotes the concentration needed to halve the response being measured. Low values mean greater potency in that assay, high ones weaker potency in that assay.
